Data taken from US20100267561A1, “HERBICIDAL PYRIDAZINONE DERIVATIVES” (priority 2007, published 2010).

Tests used:
Format in all cases: in vivo
[1] = system: chickweed (Stellaria media); test: Test B postemergence plant response; conditions: for Chickweed plant response rating: 8 g ai/ha, postemergence, 0-100 scale; for Plant response rating, Chickweed: Postemergence
Procedure, shortened: (§1)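 Visual injury score from 0 (none) to 100 (complete control) versus controls, taken 13 to 15 days after treatment in the greenhouse; chemicals applied postemergence, as formulated, to plants of 1- to 4-leaf stage (2 to 18 cm tall); dash denotes no test result.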

[2] = system: winter barley (Hordeum vulgare); test: Test B postemergence plant response; conditions: for Barley plant response rating: 8 g ai/ha, postemergence, 0-100 scale; for Plant response rating, Barley: Postemergence
Procedure, shortened: as §1

[3] = system: canarygrass (Phalaris minor); test: Test B postemergence plant response; conditions: for Canarygrass plant response rating: 8 g ai/ha, postemergence, 0-100 scale; for Plant response rating, Canarygrass: Postemergence
Procedure, shortened: as §1

[4] = system: windgrass (Apera spica-venti); test: Test B postemergence plant response; conditions: for Windgrass plant response rating: 8 g ai/ha, postemergence, 0-100 scale; for Plant response rating, Windgrass: Postemergence
Procedure, shortened: as §1

[5] = system: barnyardgrass (Echinochloa crus-galli); test: Test B flooded paddy test plant response
Procedure, shortened: (§2)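 Step one: raise plants to 2 leaves. Step two: flood pots 3 cm over the soil and apply compound into the water, keeping this depth. Step three: after 13–15 greenhouse days, score visually versus controls, 0–100, where 100 means complete control.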

[6] = system: umbrella sedge (Cyperus difformis); test: Test B flooded paddy test plant response
Procedure, shortened: as §2

corn (Zea mays) = test: Test A pre-/postemergence plant response
Procedure, shortened: (§3)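 Ratings run 0–100 (100 = complete control), assigned visually against untreated controls roughly 10 days after treatment in a greenhouse. Compounds, formulated in non-phytotoxic solvent containing surfactant, were applied as a soil-directed preemergence spray and concurrently postemergence to one- to two-leaf plants 2–10 cm tall.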

[7] = system: pigweed (Amaranthus retroflexus); test: Test A pre-/postemergence plant response
Procedure, shortened: as §3

[8] = system: velvetleaf (Abutilon theophrasti); test: Test A pre-/postemergence plant response
Procedure, shortened: as §3

[9] = system: large crabgrass (Digitaria sanguinalis); test: Test A pre-/postemergence plant response
Procedure, shortened: as §3

[10] = system: wheat (Triticum aestivum); test: Test A pre-/postemergence plant response
Procedure, shortened: as §3

[11] = system: morningglory (Ipomoea coccinea); test: Test A pre-/postemergence plant response
Procedure, shortened: as §3

[12] = system: barnyardgrass (Echinochloa crus-galli); test: Test A pre-/postemergence plant response
Procedure, shortened: as §3

[13] = system: giant foxtail (Setaria faberi); test: Test A pre-/postemergence plant response
Procedure, shortened: as §3

[14] = 31 g ai/ha, scale 0 to 100, 0 no effect, 100 complete control
[15] = 62 g ai/ha, scale 0 to 100, 0 no effect, 100 complete control
[16] = 16 g ai/ha, scale 0 to 100, 0 no effect, 100 complete control
[17] = Flood (flooded paddy test), 62 g ai/ha, scale 0 to 100, 0 no effect, 100 complete control
[18] = Flood (flooded paddy test), 125 g ai/ha, scale 0 to 100, 0 no effect, 100 complete control
[19] = Flood (flooded paddy test), 250 g ai/ha, scale 0 to 100, 0 no effect, 100 complete control
[20] = Flood, 31 g ai/ha, scale 0 to 100
[21] = Postemergence, 31 g ai/ha, 0 to 100 scale (0 no effect, 100 complete control)
[22] = Postemergence, 125 g ai/ha, 0 to 100 scale, 0 no effect, 100 complete control
[23] = Preemergence, 31 g ai/ha, 0 to 100 scale, 0 is no effect, 100 is complete control
[24] = Preemergence, 125 g ai/ha, 0 to 100 scale (0 no effect, 100 complete control)
[25] = Postemergence, 500 g ai/ha, 0 to 100 scale, 0 no effect, 100 complete control
[26] = Preemergence, 500 g ai/ha, 0 to 100 scale (0 no effect, 100 complete control)

Compound: CCc1cc(-c2ccc(Cl)cc2)nn1-c1c(OC(=O)C(C)(C)C)cnn(C)c1=O [Compound 40]
- Chickweed plant response rating [1]: 0
- Plant response rating, Chickweed ([1]; 16 g ai/ha, scale 0 to 100): 0
- Plant response rating, Chickweed [1, 14]: 0
- Plant response rating, Chickweed [1, 15]: 0
- Barley plant response rating [2]: 35
- Plant response rating, Barley [2, 16]: 40
- Plant response rating, Barley [2, 14]: 70
- Plant response rating, Barley [2, 15]: 70
- Canarygrass plant response rating [3]: 20
- Plant response rating, Canarygrass ([3]; 16 g ai/ha, scale 0 to 100): 30
- Plant response rating, Canarygrass [3, 14]: 80
- Plant response rating, Canarygrass [3, 15]: 80
- Windgrass plant response rating [4]: 70
- Plant response rating, Windgrass ([4]; 16 g ai/ha, scale 0 to 100): 80
- Plant response rating, Windgrass [4, 15]: 100
- Plant response rating, Barnyardgrass [5, 17]: 85
- Plant response rating, Barnyardgrass [5, 18]: 100
- Plant response rating, Barnyardgrass [5, 19]: 100
- Plant response rating, Barnyardgrass [5, 20]: 60
- Plant response rating, Sedge, Umbrella [6, 17]: 0
- Plant response rating, Sedge, Umbrella [6, 18]: 0
- Plant response rating, Sedge, Umbrella [6, 19]: 0
- Plant response rating, Sedge, Umbrella [6, 20]: 0
- Plant response rating, Corn (corn (Zea mays); [21]): 90
- Plant response rating, Corn (corn (Zea mays); [22]): 100
- Plant response rating, Corn (corn (Zea mays); [23]): 30
- Plant response rating, Corn (corn (Zea mays); [24]): 90
- Plant response rating, Pigweed [7, 21]: 0
- Plant response rating, Pigweed [7, 22]: 0
- Plant response rating, Pigweed [7, 23]: 0
- Plant response rating, Velvetleaf [8, 21]: 0
- Plant response rating, Velvetleaf [8, 22]: 0
- Plant response rating, Velvetleaf [8, 23]: 0
- Plant response rating, Velvetleaf [8, 24]: 0
- Plant response rating, Crabgrass, Large [9, 21]: 70
- Plant response rating, Crabgrass, Large [9, 22]: 100
- Plant response rating, Crabgrass, Large [9, 23]: 70
- Plant response rating, Crabgrass, Large [9, 24]: 100
- Plant response rating, Wheat [10, 21]: 70
- Plant response rating, Wheat [10, 22]: 90
- Plant response rating, Wheat [10, 23]: 50
- Plant response rating, Wheat [10, 24]: 90
- Plant response rating, Morningglory [11, 21]: 0
- Plant response rating, Morningglory [11, 22]: 0
- Plant response rating, Morningglory [11, 23]: 0
- Plant response rating, Morningglory [11, 24]: 0
- Plant response rating, Barnyardgrass [12, 21]: 100
- Plant response rating, Barnyardgrass [12, 22]: 100
- Plant response rating, Barnyardgrass [12, 23]: 100
- Plant response rating, Barnyardgrass [12, 24]: 100
- Plant response rating, Foxtail, Giant [13, 21]: 100
- Plant response rating, Foxtail, Giant [13, 22]: 100
- Plant response rating, Foxtail, Giant [13, 23]: 100
- Plant response rating, Foxtail, Giant [13, 24]: 100

Compound: CCc1cc(-c2ccc(Cl)cc2)nn1-c1c(OS(C)(=O)=O)cnn(C)c1=O [Compound 39]
- Chickweed plant response rating [1]: 0
- Plant response rating, Chickweed ([1]; 16 g ai/ha, scale 0 to 100): 0
- Plant response rating, Chickweed [1, 14]: 0
- Plant response rating, Chickweed [1, 15]: 0
- Barley plant response rating [2]: 0
- Plant response rating, Barley [2, 16]: 5
- Plant response rating, Barley [2, 14]: 40
- Plant response rating, Barley [2, 15]: 70
- Canarygrass plant response rating [3]: 0
- Plant response rating, Canarygrass ([3]; 16 g ai/ha, scale 0 to 100): 0
- Plant response rating, Canarygrass [3, 14]: 40
- Plant response rating, Canarygrass [3, 15]: 50
- Windgrass plant response rating [4]: 0
- Plant response rating, Windgrass ([4]; 16 g ai/ha, scale 0 to 100): 40
- Plant response rating, Windgrass [4, 15]: 100
- Plant response rating, Barnyardgrass [5, 17]: 80
- Plant response rating, Barnyardgrass [5, 18]: 65
- Plant response rating, Barnyardgrass [5, 19]: 85
- Plant response rating, Barnyardgrass [5, 20]: 0
- Plant response rating, Sedge, Umbrella [6, 17]: 0
- Plant response rating, Sedge, Umbrella [6, 18]: 0
- Plant response rating, Sedge, Umbrella [6, 19]: 85
- Plant response rating, Sedge, Umbrella [6, 20]: 0
- Plant response rating, Corn (corn (Zea mays); [21]): 70
- Plant response rating, Corn (corn (Zea mays); [22]): 100
- Plant response rating, Corn (corn (Zea mays); [23]): 30
- Plant response rating, Corn (corn (Zea mays); [24]): 90
- Plant response rating, Pigweed [7, 21]: 0
- Plant response rating, Pigweed [7, 22]: 0
- Plant response rating, Pigweed [7, 23]: 0
- Plant response rating, Pigweed [7, 24]: 0
- Plant response rating, Velvetleaf [8, 21]: 0
- Plant response rating, Velvetleaf [8, 22]: 0
- Plant response rating, Velvetleaf [8, 23]: 0
- Plant response rating, Velvetleaf [8, 24]: 0
- Plant response rating, Crabgrass, Large [9, 21]: 60
- Plant response rating, Crabgrass, Large [9, 22]: 100
- Plant response rating, Crabgrass, Large [9, 23]: 60
- Plant response rating, Crabgrass, Large [9, 24]: 100
- Plant response rating, Wheat [10, 21]: 40
- Plant response rating, Wheat [10, 22]: 80
- Plant response rating, Wheat [10, 23]: 40
- Plant response rating, Wheat [10, 24]: 80
- Plant response rating, Morningglory [11, 21]: 0
- Plant response rating, Morningglory [11, 22]: 0
- Plant response rating, Morningglory [11, 23]: 0
- Plant response rating, Morningglory [11, 24]: 0
- Plant response rating, Barnyardgrass [12, 21]: 100
- Plant response rating, Barnyardgrass [12, 22]: 100
- Plant response rating, Barnyardgrass [12, 23]: 100
- Plant response rating, Barnyardgrass [12, 24]: 100
- Plant response rating, Foxtail, Giant [13, 21]: 90
- Plant response rating, Foxtail, Giant [13, 22]: 100
- Plant response rating, Foxtail, Giant [13, 23]: 90
- Plant response rating, Foxtail, Giant [13, 24]: 100

Compound: 4-[3-(4-chlorophenyl)-5-methyl-1H-pyrazol-3-yl]-5-hydroxy-2-methyl-3(2H)-pyridazinone [Compound 3]
- Plant response rating, Chickweed [1, 14]: 0
- Plant response rating, Chickweed ([1]; 62 g ai/ha, scale 0 to 100): 0
- Plant response rating, Chickweed ([1]; 125 g ai/ha, scale 0 to 100): 0
- Plant response rating, Chickweed ([1]; 250 g ai/ha, scale 0 to 100): 0
- Plant response rating, Barley [2, 14]: 0
- Plant response rating, Barley ([2]; 62 g ai/ha, scale 0 to 100): 0
- Plant response rating, Barley ([2]; 125 g ai/ha, scale 0 to 100): 0
- Plant response rating, Barley ([2]; 250 g ai/ha, scale 0 to 100): 0
- Plant response rating, Canarygrass [3, 14]: 85
- Plant response rating, Canarygrass ([3]; 62 g ai/ha, scale 0 to 100): 85
- Plant response rating, Canarygrass ([3]; 125 g ai/ha, scale 0 to 100): 85
- Plant response rating, Canarygrass ([3]; 250 g ai/ha, scale 0 to 100): 90
- Plant response rating, Windgrass [4, 14]: 80
- Plant response rating, Windgrass ([4]; 62 g ai/ha, scale 0 to 100): 100
- Plant response rating, Windgrass ([4]; 125 g ai/ha, scale 0 to 100): 100
- Plant response rating, Windgrass ([4]; 250 g ai/ha, scale 0 to 100): 100
- Plant response rating, Barnyardgrass [5, 17]: 60
- Plant response rating, Barnyardgrass [5, 18]: 70
- Plant response rating, Barnyardgrass [5, 19]: 80
- Plant response rating, Barnyardgrass [5, 20]: 0
- Plant response rating, Sedge, Umbrella [6, 17]: 60
- Plant response rating, Sedge, Umbrella [6, 18]: 80
- Plant response rating, Sedge, Umbrella [6, 19]: 80
- Plant response rating, Sedge, Umbrella [6, 20]: 60
- Plant response rating, Corn (corn (Zea mays); [22]): 90
- Plant response rating, Corn (corn (Zea mays); [25]): 100
- Plant response rating, Corn (corn (Zea mays); [24]): 80
- Plant response rating, Corn (corn (Zea mays); [26]): 90
- Plant response rating, Pigweed [7, 22]: 0
- Plant response rating, Pigweed [7, 25]: 10
- Plant response rating, Pigweed [7, 24]: 0
- Plant response rating, Pigweed [7, 26]: 0
- Plant response rating, Velvetleaf [8, 22]: 0
- Plant response rating, Velvetleaf [8, 25]: 50
- Plant response rating, Velvetleaf [8, 24]: 0
- Plant response rating, Velvetleaf [8, 26]: 10
- Plant response rating, Crabgrass, Large [9, 22]: 100
- Plant response rating, Crabgrass, Large [9, 25]: 100
- Plant response rating, Crabgrass, Large [9, 24]: 100
- Plant response rating, Crabgrass, Large [9, 26]: 100
- Plant response rating, Wheat [10, 22]: 70
- Plant response rating, Wheat [10, 25]: 90
- Plant response rating, Wheat [10, 24]: 70
- Plant response rating, Wheat [10, 26]: 90
- Plant response rating, Morningglory [11, 22]: 50
- Plant response rating, Morningglory [11, 25]: 60
- Plant response rating, Morningglory [11, 24]: 0
- Plant response rating, Morningglory [11, 26]: 0
- Plant response rating, Barnyardgrass [12, 22]: 100
- Plant response rating, Barnyardgrass [12, 25]: 100
- Plant response rating, Barnyardgrass [12, 24]: 90
- Plant response rating, Barnyardgrass [12, 26]: 100
- Plant response rating, Foxtail, Giant [13, 22]: 100
- Plant response rating, Foxtail, Giant [13, 25]: 100
- Plant response rating, Foxtail, Giant [13, 24]: 100
- Plant response rating, Foxtail, Giant [13, 26]: 100
